# Experiment: Hematology assays in cynomolgus monkeys (Example 45)
# Type: in vivo
# Conditions: for MCH / MCHC / MCV / RBC count / WBC count / hematocrit / hemoglobin: escalating dose regimen
# Description: Groups, each consisting of two male and three female monkeys, were injected subcutaneously with ISIS 416838, ISIS 416850, ISIS 416858, ISIS 416864, or ISIS 417002 in escalating doses. Antisense oligonucleotide was administered to the monkeys at 5 mg/kg three times per a week for week 1; 5 mg/kg twice per week for weeks 2 and 3; 10 mg/kg three times per week for week 4; 10 mg/kg twice per week for weeks 5 and 6; 25 mg/kg three times per week for week 7; and 25 mg/kg twice per week for weeks 8, 9, 10, 11, and 12. One control group, consisting of two male and three female monkeys, was injected subcutaneously with PBS according to the same dosing regimen. An additional experimental group, consisting of two male and three female monkeys, was injected subcutaneously with ISIS 416850 in a chronic, lower dose regimen. Antisense oligonucleotide was administered to the monkeys at 5 mg/kg three times per week for week 1; 5 mg/kg twice per week for week 2 and 3; 10 mg/kg three times per week for week 4; and 10 mg/kg twice per week for weeks 5 to 12. Body weights were measured weekly. Blood samples were collected 14 days and 5 days before the start of treatment and subsequently once per week for Factor 11 protein activity analysis in plasma, fibrinogen measurement, PT and aPTT measurements, bleeding times, and measurement of various hematologic factors. On day 85, the monkeys were euthanized by exsanguination while under deep anesthesia, and organs harvested for further analysis.
# The ISIS oligonucleotide, ISIS 416850, given with the chronic dose regimen is distinguished from the other oligonucleotides with an asterisk (*).
substance,measurement,setting,value
"ISIS 416858: MOE gapmer, nucleobases 1275 to 1318 of SEQ ID NO: 1 (Table 8) (antisense ACGGCATTGGTGCACAGTTT; MOE gapmer, wing and gap sizes not given here)",MCH,Day 64,22 pg
same,MCH,Day 71,22 pg
same,MCH,Day 78,23 pg
same,MCH,Day 85,22 pg
same,basophils,day 8,0.3%
same,eosinophils,day 8,0.3%
same,lymphocytes,day 8,45%
same,monocytes,day 8,2.7%
same,neutrophils,day 8,51%
same,platelet count,day 8,391000 µL⁻¹
same,reticulocytes,day 8,1.2%
same,MCH,day 8,23 pg
same,MCHC,day 8,30 g/dL
same,MCV,day 8,77 fL
same,RBC count,day 8,5.6e+06 µL⁻¹
same,WBC count,day 8,12000 µL⁻¹
same,hematocrit,day 8,43%
same,hemoglobin,day 8,12.8 g/dL
same,basophils,day 15,0.2%
same,eosinophils,day 15,0.3%
same,lymphocytes,day 15,43%
same,monocytes,day 15,2.2%
same,neutrophils,day 15,54%
same,platelet count,day 15,400000 µL⁻¹
same,reticulocytes,day 15,1.6%
same,MCH,day 15,23 pg
same,MCHC,day 15,31 g/dL
same,MCV,day 15,74 fL
same,RBC count,day 15,5.4e+06 µL⁻¹
same,WBC count,day 15,11000 µL⁻¹
same,hematocrit,day 15,40%
same,hemoglobin,day 15,12.6 g/dL
same,basophils,day 22,0.2%
same,eosinophils,day 22,0.6%
same,lymphocytes,day 22,49%
same,monocytes,day 22,2.8%
same,neutrophils,day 22,47%
same,platelet count,day 22,316000 µL⁻¹
same,reticulocytes,day 22,1.3%
same,MCH,day 22,24 pg
same,MCHC,day 22,30 g/dL
same,MCV,day 22,77 fL
same,RBC count,day 22,5.3e+06 µL⁻¹
same,WBC count,day 22,11000 µL⁻¹
same,hematocrit,day 22,41%
same,hemoglobin,day 22,12.4 g/dL
same,basophils,day 29,0.2%
same,eosinophils,day 29,0.6%
same,lymphocytes,day 29,51%
same,monocytes,day 29,3.8%
same,neutrophils,day 29,43%
same,platelet count,day 29,336000 µL⁻¹
same,reticulocytes,day 29,1.5%
same,MCH,day 29,23 pg
same,MCHC,day 29,30 g/dL
same,MCV,day 29,78 fL
same,RBC count,day 29,5.3e+06 µL⁻¹
same,WBC count,day 29,12000 µL⁻¹
same,hematocrit,day 29,41%
same,hemoglobin,day 29,12.3 g/dL
same,basophils,day 36,0.3%
same,eosinophils,day 36,0.4%
same,lymphocytes,day 36,49%
same,monocytes,day 36,2.9%
same,neutrophils,day 36,47%
same,platelet count,day 36,371000 µL⁻¹
same,reticulocytes,day 36,1.6%
same,MCH,day 36,23 pg
same,MCHC,day 36,31 g/dL
same,MCV,day 36,75 fL
same,RBC count,day 36,5.5e+06 µL⁻¹
same,WBC count,day 36,12000 µL⁻¹
same,hematocrit,day 36,40%
same,hemoglobin,day 36,12.6 g/dL
same,basophils,day 43,0.3%
same,eosinophils,day 43,0.3%
same,lymphocytes,day 43,51%
same,monocytes,day 43,3.1%
same,neutrophils,day 43,45%
same,platelet count,day 43,342000 µL⁻¹
same,reticulocytes,day 43,1.3%
same,MCH,day 43,23 pg
same,MCHC,day 43,31 g/dL
same,MCV,day 43,74 fL
same,RBC count,day 43,5.5e+06 µL⁻¹
same,WBC count,day 43,11000 µL⁻¹
same,hematocrit,day 43,40%
same,hemoglobin,day 43,12.4 g/dL
same,basophils,day 50,0.4%
same,eosinophils,day 50,0.4%
same,lymphocytes,day 50,48%
same,monocytes,day 50,4.6%
same,neutrophils,day 50,46%
same,platelet count,day 50,331000 µL⁻¹
same,reticulocytes,day 50,1.5%
same,MCH,day 50,23 pg
same,MCHC,day 50,30 g/dL
same,MCV,day 50,76 fL
same,RBC count,day 50,5.5e+06 µL⁻¹
same,WBC count,day 50,13000 µL⁻¹
same,hematocrit,day 50,41%
same,hemoglobin,day 50,12.2 g/dL
same,basophils,day 57,0.2%
same,eosinophils,day 57,0.3%
same,lymphocytes,day 57,51%
same,monocytes,day 57,3.8%
same,neutrophils,day 57,44%
same,platelet count,day 57,333000 µL⁻¹
same,reticulocytes,day 57,1.4%
same,MCH,day 57,22 pg
same,MCHC,day 57,31 g/dL
same,MCV,day 57,74 fL
same,RBC count,day 57,5.6e+06 µL⁻¹
same,WBC count,day 57,13000 µL⁻¹
same,hematocrit,day 57,41%
same,hemoglobin,day 57,12.7 g/dL
same,basophils,day 64,0.4%
same,eosinophils,day 64,0.4%
same,lymphocytes,day 64,56%
same,monocytes,day 64,4.4%
same,neutrophils,day 64,37%
same,platelet count,day 64,295000 µL⁻¹
same,reticulocytes,day 64,1.0%
same,MCHC,day 64,30 g/dL
same,MCV,day 64,73 fL
same,RBC count,day 64,5.7e+06 µL⁻¹
same,WBC count,day 64,12000 µL⁻¹
same,hematocrit,day 64,42%
same,hemoglobin,day 64,12.8 g/dL
same,basophils,day 71,0.4%
same,eosinophils,day 71,0.9%
same,lymphocytes,day 71,66%
same,monocytes,day 71,4.9%
same,neutrophils,day 71,26%
same,platelet count,day 71,286000 µL⁻¹
same,reticulocytes,day 71,1.3%
same,MCHC,day 71,30 g/dL
same,MCV,day 71,75 fL
same,RBC count,day 71,5.6e+06 µL⁻¹
same,WBC count,day 71,13000 µL⁻¹
same,hematocrit,day 71,42%
same,hemoglobin,day 71,12.7 g/dL
same,basophils,day 78,0.4%
same,eosinophils,day 78,0.5%
same,lymphocytes,day 78,54%
same,monocytes,day 78,4.9%
same,neutrophils,day 78,39%
same,platelet count,day 78,262000 µL⁻¹
same,reticulocytes,day 78,1.2%
same,MCHC,day 78,32 g/dL
same,MCV,day 78,72 fL
same,RBC count,day 78,5.4e+06 µL⁻¹
same,WBC count,day 78,11000 µL⁻¹
same,hematocrit,day 78,39%
same,hemoglobin,day 78,12.4 g/dL
same,basophils,day 85,0.3%
same,eosinophils,day 85,0.6%
same,lymphocytes,day 85,52%
same,monocytes,day 85,6.1%
same,neutrophils,day 85,40%
same,platelet count,day 85,267000 µL⁻¹
same,reticulocytes,day 85,1.3%
same,MCHC,day 85,31 g/dL
same,MCV,day 85,72 fL
same,RBC count,day 85,5.5e+06 µL⁻¹
same,WBC count,day 85,11000 µL⁻¹
same,hematocrit,day 85,39%
same,hemoglobin,day 85,11.9 g/dL
same,basophils,day −5,0.3%
same,eosinophils,day −5,1.3%
same,lymphocytes,day −5,49%
same,monocytes,day −5,2.8%
same,neutrophils,day −5,46%
same,platelet count,day −5,463000 µL⁻¹
same,reticulocytes,day −5,0.9%
same,MCH,day −5,23 pg
same,MCHC,day −5,31 g/dL
same,MCV,day −5,75 fL
same,RBC count,day −5,5.6e+06 µL⁻¹
same,WBC count,day −5,14000 µL⁻¹
same,hematocrit,day −5,42%
same,hemoglobin,day −5,13.2 g/dL
same,basophils,day −14,0.3%
same,eosinophils,day −14,0.7%
same,lymphocytes,day −14,58%
same,monocytes,day −14,2.8%
same,neutrophils,day −14,37%
same,platelet count,day −14,419000 µL⁻¹
same,reticulocytes,day −14,1.0%
same,MCH,day −14,24 pg
same,MCHC,day −14,31 g/dL
same,MCV,day −14,77 fL
same,RBC count,day −14,5.6e+06 µL⁻¹
same,WBC count,day −14,14000 µL⁻¹
same,hematocrit,day −14,43%
same,hemoglobin,day −14,13.2 g/dL
